Experimental data taken from ChEMBL document CHEMBL5226308, “Amide-Amine Replacement in Indole-2-carboxamides Yields Potent Mycobactericidal Agents with Improved Water Solubility” (ACS Med Chem Lett, 2021).
Active and inactive are the calls of the source. The calls are words filed in the database; no cut-off is given here.

Columns and labels:
[1] = system: Mycobacterium tuberculosis variant bovis; test: Inhibition of MmpL3 C1932G/F644L mutant in Mycobacterium bovis BCG B47-4 assessed as reduction in TDM level at 1XMIC90 treated for 1 hr followed by incubation with [14C]acetate for 1 to 3 hrs by thin layer chromatography; settings: time 2-4 hrs
[2] = system: Mycobacterium tuberculosis variant bovis; test: Inhibition of MmpL3 C1932G/F644L mutant in Mycobacterium bovis BCG B47-4 assessed as increase in TMM level at 1XMIC90 treated for 1 hr followed by incubation with [14C]acetate for 1 to 3 hrs by thin layer chromatography; settings: time 2-4 hrs
[3] = system: Mycobacterium tuberculosis variant bovis; test: Inhibition of MmpL3 in Mycobacterium bovis BCG ATCC 35734 assessed as reduction in TDM level at 1XMIC90 treated for 1 hr followed by incubation with [14C]acetate for 1 to 3 hrs by thin layer chromatography; settings: time 2-4 hrs, TDE = time-dependent effect
[4] = system: Mycobacterium tuberculosis variant bovis; test: Inhibition of MmpL3 in Mycobacterium bovis BCG ATCC 35734 assessed as increase in TMM level at 1XMIC90 treated for 1 hr followed by incubation with [14C]acetate for 1 to 3 hrs by thin layer chromatography; settings: time 2-4 hrs, TDE = time-dependent effect
[5] = system: Mycobacterium tuberculosis variant bovis; test: Inhibition of MmpL3 in Mycobacterium bovis BCG ATCC 35734 assessed as reduction in TDM level at 4XMIC90 treated for 1 hr followed by incubation with [14C]acetate for 1 to 3 hrs by thin layer chromatography; settings: time 2-4 hrs
[6] = system: Mycobacterium tuberculosis variant bovis; test: Inhibition of MmpL3 in Mycobacterium bovis BCG ATCC 35734 assessed as increase in TMM level at 4XMIC90 treated for 1 hr followed by incubation with [14C]acetate for 1 to 3 hrs by thin layer chromatography; settings: time 2-4 hrs

Row | SMILES | inhibition [1] | inhibition [2] | inhibition [3] | inhibition [4] | inhibition [5] | inhibition [6]
1 | c1ccc2[se]c(CNC3CCCCCCC3)cc2c1 | inactive | inactive | – | – | – | –
2 | c1ccc2sc(CNC3CCCCCCC3)cc2c1 | inactive | inactive | Tde | Tde | – | –
3 | O=C(NC1CCCCCCC1)c1cc2ccc(C(F)(F)F)cc2[nH]1 | inactive | inactive | Tde | Tde | – | –
4 | FC(F)(F)c1ccc2cc(CNC3CCCCCCC3)[nH]c2c1 | inactive | inactive | Tde | Tde | – | –
5 | CC[C@@H](CO)NCCN[C@@H](CC)CO | – | – | – | – | inactive | inactive
6 | O=C(NC1CCCCCCC1)c1cc2ccccc2[se]1 | inactive | inactive | – | – | – | –
7 | O=C(NC1CCCCCCC1)c1cc2ccccc2s1 | inactive | inactive | – | – | – | –
8 | Cc1c(CN2CCN(C)CC2)cc(-c2ccc(Cl)cc2)n1-c1ccc(Cl)cc1 | inactive | inactive | Tde | Tde | – | –
